# Peptide text beside a SMILES is read from it. * marks the point of attachment. Cbz = O=C(OCc1ccccc1)*
# Key:
# β-Catenin in SW480 cells = assay: Western analysis of β-Catenin in SW480 cells; assay type: cell-based, human
# Description: (§1) Cells were scraped off the 100-mm dish and lysed in 1 ml of lysis buffer (1 mM PMSF, 1 mM EDTA, 10 mM Tris-HCl, 0.1% Triton X100, 1× Complete Protease Inhibitor Cocktail (Roche) in PBS). The lysates were spun down, and 1 μg of anti-c-Myc antibody (Sigma, M4439) or anti-Flag antibody (Sigma, F1804) was added to 500 μl of the supernatant. A 50-50 mixture of protein A Sepharose (Amersham) and protein G Sepharose (Amersham) was added to the lysate/antibody mixture for immunoprecipitation for 1 hour. The resulting outputs were washed with lysis buffer and subjected to western blot analysis. For western blotting, samples were analyzed using antibodies against active-β-Catenin (anti-ABC, Millipore), phospho-β-Catenin (Ser33/37/Thr41, Cell Signaling), β-Catenin (sc-1496, Santa Cruz Biotechnology) and Gapdh (Santa Cruz Biotechnology).
# (§2) FIGS. 5A-I. γ-Secretase Inhibitors (GSIs) Suppress Expansion of Human Colon Cancer Cells by Blocking Notch Cleavage (A) Western analysis of active β-Catenin in SW480 colon cancer cells transfected with control or siRNA against Notch1-4 (100 nM each). (B) Relative β-Catenin/TCF activity of SW480 cells treated with increasing doses of DAPT for 96 h. (C) Western analysis of β-Catenin levels in SW480 and a second colon cancer cell line, HT-29, treated with increasing doses (0, 25, 50 or 100 μM) of DAPT for 96 h. (D) Relative number of SW480 cells treated with DAPT (50 or 100 μM) for 72 h. (E) Western analysis of active β-Catenin levels in SW480 cells with increasing DAPT in the presence or absence of proteasome inhibitor (PI) MG-132 (5 nM) for 72 h. […] (F) Notch/RBP-J activity of SW480 cells treated with increasing doses of Ibuprofen. Notch/RBP-J activity was measured by transfecting cells with a luciferase reporter downstream of multiple RBP-J sites. (G) Relative β-Catenin/TCF activity of SW480 cells treated with Ibuprofen for 72 h. (H) Western analysis of active β-Catenin in SW480 cells treated with Ibuprofen for 72 h. (I) Western analysis of active β-Catenin in SW480 cells transfected with Notch1-4 (100 nM each) siRNA and treated with or without ibuprofen. Gapdh antibody was used as a loading control. All luciferase values were normalized to Renilla activity and represent n=4. *, P<0.01. Con, control; N1-4 KD, Notch 1-4 siRNA.
# active β-Catenin in ESCs = assay: Western analysis of active β-Catenin in ESCs; assay type: cell-based
# From the text: Gapdh antibody was used as a loading control. h, head; ht, heart tube; Con, control; N1 KD, Notch1 siRNA; N1-4 KD, Notch 1-4 siRNA.
# [1] = tested on: β-Catenin/TCF activity in ESCs; assay: β-Catenin/TCF-directed luciferase reporter (Topflash) in ESCs; assay type: cell-based; conditions: increasing doses of DAPT, 72-96 h
# Description: For Notch, RBP-J or Numb/Numbl knockdown experiments, Notch1-4, RBPSUH or Numb/Numbl On-TARGETplus SMARTpool (Dharmacon L-041110, L-044202, L-047867, L-046498, L-007772 or L-046935/L-046983) or Block-iT Alexa Fluor Red (46-5, 318, Invitrogen) was used at concentrations of 50, 100, or 200 nM for cell transfection. Tethered and truncated forms of Notch1 constructs were kindly provided by Drs. R. Kopan (Washington University, St. Louis, Mo.) and M. Nakafuku (Cincinnati Children's Hospital, Cincinnati, Ohio), respectively. Cells were transfected with Lipofectamine LTX (Invitrogen) or Lipofectamine 2000 (Invitrogen) in single-cell suspensions. […] Real-time quantitative PCR data were normalized and standardized with SDS2.2 software. […]
# FIGS. 1A-F. Notch Negatively Regulates Active β-Catenin in Stem Cells Independently of RBP-J (A) Western analysis of ESCs transfected with control or Notch1 (N1) siRNA (50 or 100 nM) with active β-Catenin (Act β-Cat) antibody that detects N-terminal-dephosphorylated β-Catenin. (B and C) Relative β-Catenin/TCF-directed luciferase activity in ESCs (B) or neural stem cells (NSCs) (C) transfected with control siRNA or siRNA against Notch1 or Notch1-4. β-Catenin/TCF activity was measured by co-transfecting cells with a luciferase reporter downstream of multiple TCF binding sites (Topflash). […]
# ESCs = assay: Relative number of ESCs after treatment; assay type: cell-based; conditions: DAPT 50 or 100 μM, 48 h
# From the text: (§3) FIGS. 3A-I. Membrane-Bound Notch Negatively Regulates Active β-Catenin Levels in Stem Cells (A) Schematic representation of wildtype Notch1 and cleavage site-mutated tethered forms of Notch1 (V1744K and V1774L). […] (C) BIO-treated ESCs transfected with WT or mutant Notch1 constructs and, immunoprecipitated (IP) with anti-Myc antibody and immunoblotted (IB) with β-Catenin antibody. Notch1 expression was detected with anti-Myc antibody. Arrowheads indicate cleaved Notch1. (D) Western analysis of active β-Catenin in ESCs transfected with WT or mutant Notch1 constructs. (E) Relative β-Catenin/TCF activity of ESCs and NSCs treated with increasing doses of DAPT for 72-96 h. (F) Western analysis of active β-Catenin in ESCs, NSCs, and bone marrow mesenchymal stem cells (MSCs) treated with increasing doses (0, 25, 50 or 100 μM) of DAPT for 72-96 h. (G) Relative number of ESCs after treatment with DAPT (50 or 100 μM) for 48 h. (H) Relative expression of Cyclin D1 mRNA in ESCs transfected with control (LacZ) or tethered Notch (V1774L) and cultured for 72 h. (I) Relative expression of Brachyury, Nestin and Sox17 mRNA in ESCs maintained without LIF for 72 h after transfection with control (LacZ) or tethered Notch (V1774L); *, P<0.01; NS, not significant. […] Con, control.
# [2] = tested on: hESCs, NSCs and bone marrow mesenchymal stem cells; assay: β-Catenin activity and protein in other stem cells; assay type: cell-based; conditions: increasing doses of DAPT, 72-96 h
# From the text: as §3
# β-Catenin in HT-29 cells = assay: Western analysis of β-Catenin in HT-29 cells; assay type: cell-based, human; conditions: HT-29, DAPT 0, 25, 50 or 100 μM, 96 h
# Description: as §1
# (§4) FIGS. 5A-I. γ-Secretase Inhibitors (GSIs) Suppress Expansion of Human Colon Cancer Cells by Blocking Notch Cleavage (A) Western analysis of active β-Catenin in SW480 colon cancer cells transfected with control or siRNA against Notch1-4 (100 nM each). (B) Relative β-Catenin/TCF activity of SW480 cells treated with increasing doses of DAPT for 96 h. […] Notch/RBP-J activity was measured by transfecting cells with a luciferase reporter downstream of multiple RBP-J sites. […]
# [3] = tested on: β-Catenin/TCF activity in SW480 cells; assay: β-Catenin/TCF luciferase activity in SW480 cells; assay type: cell-based, human
# Description: (§5) For Notch, RBP-J or Numb/Numbl knockdown experiments, Notch1-4, RBPSUH or Numb/Numbl On-TARGETplus SMARTpool (Dharmacon L-041110, L-044202, L-047867, L-046498, L-007772 or L-046935/L-046983) or Block-iT Alexa Fluor Red (46-5, 318, Invitrogen) was used at concentrations of 50, 100, or 200 nM for cell transfection. Tethered and truncated forms of Notch1 constructs were kindly provided by Drs. R. Kopan (Washington University, St. Louis, Mo.) and M. Nakafuku (Cincinnati Children's Hospital, Cincinnati, Ohio), respectively. Cells were transfected with Lipofectamine LTX (Invitrogen) or Lipofectamine 2000 (Invitrogen) in single-cell suspensions. For gene expression analysis, qPCR was performed with the ABI Prism system (7900HT, Applied Biosystems) with the following primers: β-Catenin (Mm01350394_m1), Cyclin D1 (Mm00432359_m1), Gapdh (Mm99999915_g1). All samples were run at least in triplicate. Real-time quantitative PCR data were normalized and standardized with SDS2.2 software. […]
# as §4, with “each).” for “each). (B) Relative β-Catenin/TCF activity of SW480 cells treated with increasing doses of DAPT for 96 h.”
# SW480 cells = assay: Relative number of SW480 cells (cell expansion); assay type: cell-based, human; conditions: SW480 (FIG. 5D), DAPT 50 or 100 μM, 72 h; text names SW480 and HT-29
# Description: as §2, with “Con, control; N1-4 KD, Notch 1-4 siRNA.” left out
# [4] = tested on: Notch/RBP-J activity in SW480 cells; assay: Notch/RBP-J-dependent luciferase activity in SW480 cells; assay type: cell-based, human; conditions: SW480, increasing doses of Ibuprofen
# Description: as §5
# as §4, with “each).” for “each). (B) Relative β-Catenin/TCF activity of SW480 cells treated with increasing doses of DAPT for 96 h.”
compound,measurement,setting,value
CC(C)C[C@@H](C=O)NC(=O)[C@H](CC(C)C)NC(=O)[C@H](CC(C)C)NC(=O)OCc1ccccc1 [MG-132] (Cbz-Leu-Leu-Leu-aldehyde),active β-Catenin levels,"β-Catenin in SW480 cells; SW480, proteasome inhibitor MG-132 (5 nM), 72 h",higher levels of β-Catenin
"O=C1Nc2cc(Br)ccc2/C1=C1/Nc2ccccc2/C1=N\O [BIO, 6-bromoindirubin-3′-oxime]",active β-Catenin levels,active β-Catenin in ESCs; BIO 2 μM,greatly increases
"C[C@H](NC(=O)Cc1cc(F)cc(F)c1)C(=O)N[C@H](C(=O)OC(C)(C)C)c1ccccc1 [DAPT, N—[N-(3,5-difluorophenacetyl)-L-alanyl]-S-phenylglycine t-butyl ester]",active β-Catenin activity (relative β-Catenin/TCF activity),[1],significant reduction
same,active β-Catenin protein levels,"active β-Catenin in ESCs; DAPT 0, 25, 50 or 100 μM, 72-96 h",significant reduction
same,cell numbers,ESCs,significant decrease
same,active β-Catenin activity and protein levels,[2],trend was also observed
same,β-Catenin protein,"β-Catenin in SW480 cells; SW480, DAPT 0, 25, 50 or 100 μM, 96 h",dose-dependent decrease
same,β-Catenin protein,β-Catenin in HT-29 cells,dose-dependent decrease
same,TCF/β-Catenin-dependent transcriptional activity,"[3]; SW480 (FIG. 5B), increasing doses of DAPT, 96 h, text names SW480 and HT-29",dose-dependent decrease
same,cell expansion (relative cell number),SW480 cells,dose-dependent decrease
CC(C)Cc1ccc(C(C)C(=O)O)cc1 (centres unmarked) [Ibuprofen],active β-Catenin protein,"β-Catenin in SW480 cells; SW480, Ibuprofen, 72 h",lowered
same,reduction of β-Catenin protein levels after knockdown of Notch1-4,"β-Catenin in SW480 cells; SW480 transfected with Notch1-4 siRNA (100 nM each), with or without ibuprofen",not observed
same,active β-Catenin transcriptional activity,"[3]; SW480, Ibuprofen, 72 h",lowered
same,canonical Notch transcriptional activity (Notch/RBP-J-dependent luciferase activity),[4],dose-dependent decrease

# From patent publication US20120129189A1, “Methods of Controlling Cell Proliferation” (priority 2009, published 2012)
